Data taken from PMC11475281, “A Novel Liver Cancer-Selective Histone Deacetylase Inhibitor Is Effective against Hepatocellular Carcinoma and Induces Durable Responses with Immunotherapy” (ACS Pharmacology & Translational Science, 2024).
Like-named read-outs stand apart in the source and are kept apart here.

How the values were obtained:
Hep-G2 cells = experiment: Immunoblotting of cleaved Caspase 3 and p21WAF/CIP; type: cell-based, human; conditions: for Caspase 3 cleavage (cleaved Caspase 3/Pro-caspase 3): IC50 or 2× IC50 for 18 h; for p21WAF/CIP level: higher concentrations, 18 h
Experimental: Figure 3 Effects of STR-V-53 on intracellular markers of HDAC inhibition, antitumor immune response, and apoptosis. (a) STR-V-53 upregulates the levels of acetylated H4 and tubulin in Hep-G2 cells. Hep-G2 cells were treated with DMSO or 0.1% DMSO solution of SAHA (1.25 μM) and STR-V-53 (1.25 μM, 2.5 μM). Cells were treated for 5 h before lysis. Data are from two independent experiments. (b) STR-V-53 upregulates PD-L1 and downregulates PD-1 expressions in Hep-G2 cells. Cells were treated with DMSO or 0.1% DMSO solution of SAHA (5 μM and 10 μM) and STR-V-53 (10 and 20 μM) for 24 h. (c) STR-V-53 and SAHA caused upregulation of the levels of CD54 in the Hep-G2 cell line. Cells were treated with DMSO or 0.1% DMSO solution of SAHA (5 and 10 μM) and STR-V-53 (5, 10, and 20 μM) for 24 h. […] Cells were treated with DMSO or 0.1% DMSO solution of SAHA (5 μM) and STR-V-53 (10 and 20 μM).
HDAC inhibition could cause cell apoptosis through caspase cleavage and p21^WAF/CIP upregulation.[37] To probe if our compounds elicit a similar phenotype, we investigated the effects representative examples on the cellular levels of cleaved Caspase 3 and p21^WAF/CIP through immunoblotting.

HDAC2 = HDAC2 (Homo sapiens, UniProt Q92769); experiment: HDAC isoform inhibition (BPS Bioscience)
HDAC6 = target: T1, HDAC6 (Homo sapiens, UniProt Q9UBN7); experiment: HDAC isoform inhibition (BPS Bioscience)
T1 sequence (Q9UBN7 1-1215): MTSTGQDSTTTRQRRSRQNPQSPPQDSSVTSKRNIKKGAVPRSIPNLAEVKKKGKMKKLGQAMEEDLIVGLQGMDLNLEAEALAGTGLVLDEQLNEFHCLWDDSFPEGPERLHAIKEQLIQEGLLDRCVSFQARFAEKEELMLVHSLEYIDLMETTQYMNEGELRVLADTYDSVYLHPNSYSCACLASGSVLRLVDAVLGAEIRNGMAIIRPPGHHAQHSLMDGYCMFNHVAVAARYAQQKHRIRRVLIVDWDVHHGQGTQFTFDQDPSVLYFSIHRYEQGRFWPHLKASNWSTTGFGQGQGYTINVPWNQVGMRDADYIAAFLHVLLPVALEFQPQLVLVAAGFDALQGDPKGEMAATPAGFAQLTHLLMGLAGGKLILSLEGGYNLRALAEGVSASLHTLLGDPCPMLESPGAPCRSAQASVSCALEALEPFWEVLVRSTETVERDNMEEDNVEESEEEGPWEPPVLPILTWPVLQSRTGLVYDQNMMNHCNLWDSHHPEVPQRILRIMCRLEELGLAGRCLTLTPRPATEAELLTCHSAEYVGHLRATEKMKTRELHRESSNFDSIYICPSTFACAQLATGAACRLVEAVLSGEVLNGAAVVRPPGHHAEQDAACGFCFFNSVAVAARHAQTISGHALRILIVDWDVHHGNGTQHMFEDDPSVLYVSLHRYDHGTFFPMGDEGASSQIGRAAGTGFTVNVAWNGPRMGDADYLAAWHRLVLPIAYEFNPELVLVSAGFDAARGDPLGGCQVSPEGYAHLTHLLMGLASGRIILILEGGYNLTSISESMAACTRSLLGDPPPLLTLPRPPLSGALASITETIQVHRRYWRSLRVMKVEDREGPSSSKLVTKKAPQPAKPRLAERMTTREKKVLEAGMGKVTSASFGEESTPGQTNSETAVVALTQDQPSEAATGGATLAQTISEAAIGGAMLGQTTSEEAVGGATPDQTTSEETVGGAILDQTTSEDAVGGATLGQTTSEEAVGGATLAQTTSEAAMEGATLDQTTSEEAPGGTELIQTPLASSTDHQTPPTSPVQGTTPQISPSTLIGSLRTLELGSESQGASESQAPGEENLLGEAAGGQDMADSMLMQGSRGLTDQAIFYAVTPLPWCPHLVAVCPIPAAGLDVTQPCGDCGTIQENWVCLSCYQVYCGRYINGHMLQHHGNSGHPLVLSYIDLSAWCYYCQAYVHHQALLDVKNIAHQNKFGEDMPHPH

[1] = tested on: VERO (a normal kidney epithelial cell); experiment: MTS cell viability assay, 72 h; type: cell-based
Source text: (§1) We then screened STR-V-53 and all the synthesized glycosylated HDACi for their effects on the viability of three cell lines: A549 (lung adenocarcinoma), Hep-G2 (HCC), and VERO (a normal kidney epithelial cell). We used SORA and STR-V-48, a previously disclosed nonglycosylated compound, as controls.[25] […] Additionally, compound STR-V-167, the peracetylated analog of STR-V-53, largely retained the Hep-G2 selectivity of STR-V-53 (Table S2). Subsequently, we evaluated the effects of STR-V-53 on cell proliferation using a panel of human HCC cell lines (Huh-7, SK-Hep-1, and Hep3B) as well as Kupffer cells (liver resident macrophages) by MTS assay. We observed that STR-V-53 is 7- to 16-fold more cytotoxic against these HCC cell lines relative to the Kupffer cells (Figure 1g). […] Based on their weak HDAC and cell proliferation inhibition activities, we de-emphasized further evaluation of the class III compounds.
(§2) 10-017-CV), supplemented with 10% fetal bovine serum (FBS) (Corning, 35-010-CV). Hep-G2 cells were cultured in phenol red-free Minimum Essential Medium (MEM) (Corning, 17-305-CV), supplemented with 10% fetal bovine serum (FBS). SK-Hep-1 in ATCC-formulated EMEM (ATCC® 30–2003™); Huh-7 in DMEM (containing 4 mM L-glutamine and 1 g/L glucose) with […]
(§3) Kupffer Cell Media (Sekisui XenoTech, LLC, Cat. #K8700). Cells were seeded into a 96-well plate (2000 counts/100uL) for 24 h prior to treatment and then treated with various drug concentrations for 72 h. All drugs were dissolved in media with DMSO concentration maintained at 1%. The effect of compounds on cell viability was measured using the MTS assay (CellTiter 96 Aqueous One Solution and CellTiter 96 Non-Radioactive Cell Proliferation Assays, Promega, Madison, WI) as described by the manufacturer. IC50s were determined using Prism GraphPad 8. […]

[2] = tested on: A549 (lung adenocarcinoma); experiment: MTS cell viability assay, 72 h; type: cell-based
Source text: as §1, §2, §3

[3] = Table S2, read-out: Anti-proliferation IC50 VERO
[4] = Table S2, read-out: Anti-proliferation IC50 A549

Sequence of HDAC2 (Q92769 whole entry, canonical isoform): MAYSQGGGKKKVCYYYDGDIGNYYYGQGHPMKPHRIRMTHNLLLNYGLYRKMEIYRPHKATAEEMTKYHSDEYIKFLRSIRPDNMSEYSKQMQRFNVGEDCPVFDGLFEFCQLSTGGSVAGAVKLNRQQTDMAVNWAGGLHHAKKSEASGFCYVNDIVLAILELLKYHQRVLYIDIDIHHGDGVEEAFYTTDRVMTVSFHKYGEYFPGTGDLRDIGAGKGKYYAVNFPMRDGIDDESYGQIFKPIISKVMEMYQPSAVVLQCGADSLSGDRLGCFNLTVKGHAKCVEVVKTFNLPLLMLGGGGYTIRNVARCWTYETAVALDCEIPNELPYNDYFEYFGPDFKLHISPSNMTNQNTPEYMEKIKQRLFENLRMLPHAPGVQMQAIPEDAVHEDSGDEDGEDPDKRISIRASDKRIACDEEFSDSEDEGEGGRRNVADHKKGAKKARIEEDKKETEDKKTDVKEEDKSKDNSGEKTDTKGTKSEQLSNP

Compound | Caspase 3 cleavage (cleaved Caspase 3/Pro-caspase 3) (Hep-G2 cells) | IC50 (HDAC2; read-out: HDAC2 IC50, Table S1) [nM] | IC50 (HDAC6; read-out: HDAC6 IC50, Table S1) [nM] | p21WAF/CIP level (Hep-G2 cells) | IC50 [1, 3] [µM] | IC50 [2, 4] [µM] | IC50 (HDAC2) [nM] | IC50 (HDAC6) [nM] | IC50 ([1]; Chlorocebus sabaeus, Vero, Figure 1g, read-out: Anti-proliferation effects IC50 (μM) Vero) [µM] | IC50 ([2]; Homo sapiens, A549, Figure 1g, read-out: Anti-proliferation effects IC50 (μM) A549) [µM]
O=C(CCCCCCC(=O)Nc1ccccc1)NO [SAHA, vorinostat, reference compound] | showed cleavage of Caspase 3 |  |  |  |  |  |  |  |  | 
O=C(CCCCCCn1cc(-c2ccc(O[C@@H]3O[C@H](CO)[C@@H](O)[C@H](O)[C@H]3O)cc2)nn1)NO [STR-I-195] | showed cleavage of Caspase 3 | 29.1 | 2.51 | upregulated significantly | 65.5 ± 8.3 | > 100 |  |  |  | 
O=C(CCCCCCn1cc(-c2ccc(O[C@H]3O[C@H](CO)[C@@H](O)[C@H](O)[C@H]3O)cc2)nn1)NO [STR-V-53] | significant upregulation of cleave Caspase 3/Pro-caspase 3 ratio |  |  | upregulated significantly |  |  | 60.1 | 3.43 | > 100 | > 100
O=C(CCCCCCn1cc(-c2ccc3cc(O[C@H]4O[C@H](CO)[C@@H](O)[C@H](O)[C@H]4O)ccc3c2)nn1)NO [STR-V-114] |  | 61.5 | 4.5 |  | 34.1 ± 3 | 77.2 ± 4.3 |  |  |  | 
